Data on 16 compounds can be found in patent publication US20250163047A1, “HETEROCYCLIC COMPOUNDS, COMPOSITIONS THEREOF, AND METHODS OF TREATMENT THEREWITH” (BeiGene, Ltd., priority 2022, published 2025).

Structures are written as SMILES.

One assay has as its target T1, Cbl-b (aa36-427) (Homo sapiens, UniProt Q13191).
T1 construct: Cbl-b (aa36-427, in-house); made in house
In words: Co-expressed Cbl-b with BirA biochemical assay (CBLB/E2-Ub binding, HTRF). The conditions noted are these: 0.6 nM Cbl-b co-expressed with BirA, HTRF; read-out: co-express CBLB/E2-Ub-binding assay IC50. The source says:
(§1) The assay in the absence of a Cbl-b/Cbl inhibitor, where phosphorylation of Cbl-b/Cbl by the Src kinase allows UbcH5B-Ub to bind to Cbl-b/Cbl and brings the Bodipy-Fluorescein tagged ubiquitin in proximity to the streptavidin-terbium bound to the N-terminal biotinylated Avi-tagged Cbl-b/Cbl. […] The lack of a FRET signal indicates Cbl-b/Cbl is inhibited by the Cbl-b/Cbl inhibitor.

Another assay addresses T2, Cbl (aa49-434) (Homo sapiens, UniProt P22681).
T2 construct: Cbl (aa49-434, in-house); made in house
T2 sequence (P22681 49-434): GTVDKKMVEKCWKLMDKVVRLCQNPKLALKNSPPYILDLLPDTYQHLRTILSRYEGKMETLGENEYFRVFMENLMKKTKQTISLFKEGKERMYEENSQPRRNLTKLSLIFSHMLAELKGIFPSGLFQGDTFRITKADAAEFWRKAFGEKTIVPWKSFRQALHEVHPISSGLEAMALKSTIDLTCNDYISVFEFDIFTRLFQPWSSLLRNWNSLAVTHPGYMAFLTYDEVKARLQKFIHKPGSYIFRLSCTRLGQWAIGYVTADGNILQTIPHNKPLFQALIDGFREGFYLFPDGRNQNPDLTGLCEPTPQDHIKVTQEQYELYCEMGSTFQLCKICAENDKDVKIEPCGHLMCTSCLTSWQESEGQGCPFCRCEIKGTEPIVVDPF
In words: Co-expressed Cbl with BirA biochemical assay (CBL/E2-Ub binding, HTRF). Conditions: 0.6 nM Cbl co-expressed with BirA, read-out: co-express CBL/E2-Ub-binding assay IC50.
Text: as §1

T1 sequence (Q13191 36-427): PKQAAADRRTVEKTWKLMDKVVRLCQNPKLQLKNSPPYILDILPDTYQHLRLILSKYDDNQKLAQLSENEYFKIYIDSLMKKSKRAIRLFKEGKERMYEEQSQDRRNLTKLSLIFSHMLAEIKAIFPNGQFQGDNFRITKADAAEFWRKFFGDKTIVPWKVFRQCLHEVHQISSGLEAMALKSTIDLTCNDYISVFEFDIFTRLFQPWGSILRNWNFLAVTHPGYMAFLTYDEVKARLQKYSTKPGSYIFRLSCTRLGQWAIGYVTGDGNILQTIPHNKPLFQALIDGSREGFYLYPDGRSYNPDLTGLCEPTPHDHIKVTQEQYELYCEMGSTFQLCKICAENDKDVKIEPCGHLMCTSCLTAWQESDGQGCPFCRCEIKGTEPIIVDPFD

`CC(C)CNCc1cc(C(=O)Nc2cncc([C@]3(c4nncn4C)C[C@@H](C)C3)c2)c2ncc(Cl)n2c1` [Compound A83, 3-chloro-6-((isobutylamino)methyl)-N-(5-((1s, 3s)-3-methyl-1-(4-methyl-4H-1,2,4-triazol-3-yl)cyclobutyl)pyridin-3-yl)imidazo[1,2-a]pyridine-8-carboxamide]: the IC50 at Cbl-b (aa36-427) stood at 1 nM; on Cbl (aa49-434), 1.7 nM.

For `Cn1cnnc1[C@]1(c2cccc(NC(=O)c3cc(CNC4(C)CC4)cn4ccnc34)c2)C[C@@H](C)C1` [Compound A90, N-(3-((1r, 3r)-3-methyl-1-(4-methyl-4H-1,2,4-triazol-3-yl)cyclobutyl)phenyl)-6-(((1-methylcyclopropyl)amino)methyl)imidazo[1,2-a]pyridine-8-carboxamide], the IC50 on Cbl-b (aa36-427) is 0.5 nM; on Cbl (aa49-434), 3.2 nM.

For the compound `CC(C)CNCc1cc(C(=O)Nc2cncc([C@]3(c4nncn4C)C[C@@H](C)C3)c2)nc2c(F)c[nH]c12` [Compound B48, 3-fluoro-7-((isobutylamino)methyl)-N-(5-((1s, 3s)-3-methyl-1-(4-methyl-4H-1,2,4-triazol-3-yl)cyclobutyl)pyridin-3-yl)-1H-pyrrolo[3,2-b]pyridine-5-carboxamide], the IC50 at Cbl-b (aa36-427) was 0.89 nM; at Cbl (aa49-434) it was 3.2 nM.

For `Cn1cnnc1[C@]1(c2cccc(NC(=O)c3cc(CNCC4CCC4)c4c(n3)C(C)(C)CN4)c2)C[C@H](C)C1` [Compound C49, 7-(((cyclobutylmethyl)amino)methyl)-3,3-dimethyl-N-(3-((1s, 3s)-3-methyl-1-(4-methyl-4H-1,2,4-triazol-3-yl)cyclobutyl)phenyl)-2,3-dihydro-1H-pyrrolo[3,2-b]pyridine-5-carboxamide], the values for the IC50 on Cbl-b (aa36-427) and at Cbl (aa49-434) were 2 nM and 5.9 nM, respectively.

Turning to `Cn1cnnc1C[C@]1(c2cccc(NC(=O)c3cc(CNCC4(C)CCCC4)cn4ccnc34)c2)C[C@H](C#N)C1` [Compound A24, N-(3-((1r, 3r)-3-cyano-1-((4-methyl-4H-1,2,4-triazol-3-yl)methyl)cyclobutyl)phenyl)-6-((((1-methylcyclopentyl)methyl)amino)methyl)imidazo[1,2-a]pyridine-8-carboxamide], the IC50 on Cbl-b (aa36-427) is 2.9 nM; on Cbl (aa49-434), 8.6 nM.

As to `Cn1cnnc1C[C@]1(c2cccc(NC(=O)c3cc(CNC4(C)CC4)c4c(n3)C(C)(C)CN4)c2)C[C@H](C#N)C1` [Compound C44, 3,3-dimethyl-7-{[(1-methylcyclopropyl)amino]methyl}-N-{3-[(1r, 3r)-3-cyano-1-[(4-methyl-1,2,4-triazol-3-yl)methyl]cyclobutyl]phenyl}-1H,2H-pyrrolo[3,2-b]pyridine-5-carboxamide], the IC50 was 1.5 nM on Cbl-b (aa36-427) and 3.3 nM on Cbl (aa49-434).

Regarding `C[C@H](NCc1cc(C(=O)Nc2cccc([C@]3(c4nncn4C)C[C@@H](C)C3)c2)c2nccn2c1)C1CCCC1` [Compound A40, 6-((((S)-1-cyclopentylethyl)amino)methyl)-N-(3-((1s,3R)-3-methyl-1-(4-methyl-4H-1,2,4-triazol-3-yl)cyclobutyl)phenyl)imidazo[1,2-a]pyridine-8-carboxamide], the values for the IC50 at Cbl-b (aa36-427) and on Cbl (aa49-434) were 1.6 nM and 3.1 nM, respectively.

`C[C@H](NCc1cc(C(=O)Nc2cncc([C@]3(c4nncn4C)C[C@@H](C)C3)c2)c2ncc(F)n2c1)C1CCC1` [Compound A50, 6-({[(1S)-1-cyclobutylethyl]amino}methyl)-3-fluoro-N-{5-[(1r, 3s)-3-methyl-1-(4-methyl-1,2,4-triazol-3-yl)cyclobutyl]pyridin-3-yl}imidazo[1,2-a]pyridine-8-carboxamide]: the IC50 on Cbl-b (aa36-427) was 0.9 nM; at Cbl (aa49-434), 1.1 nM.

Turning to `Cn1cnnc1[C@]1(c2cccc(NC(=O)c3cc(CNC4(C)CCC4)c4c(n3)C(F)(F)CC4)c2)C[C@H](CC#N)C1` [Compound C42, N-(3-((1s, 3s)-3-(cyanomethyl)-1-(4-methyl-4H-1,2,4-triazol-3-yl)cyclobutyl)phenyl)-7,7-difluoro-4-(((1-methylcyclobutyl)amino)methyl)-6,7-dihydro-5H-cyclopenta[b]pyridine-2-carboxamide], the values for the IC50 at Cbl-b (aa36-427) and at Cbl (aa49-434) were 1.5 nM and 25.1 nM, respectively.

Turning to `Cc1cnc2c(C(=O)Nc3cccc([C@]4(c5nncn5C)C[C@@H](C)C4)c3)cc(CN[C@@H](C)C3CC3)cn12` [Compound A59, 6-((((S)-1-cyclopropylethyl)amino)methyl)-3-methyl-N-(3-((1s,3R)-3-methyl-1-(4-methyl-4H-1,2,4-triazol-3-yl)cyclobutyl)phenyl)imidazo[1,2-a]pyridine-8-carboxamide], the IC50 on Cbl-b (aa36-427) turned out to be 1.7 nM; at Cbl (aa49-434) it was 5.3 nM.

`Cc1c[nH]c2c(CN3CCC[C@H](C)C3)cc(C(=O)Nc3cccc([C@]4(c5nncn5C)C[C@@H](CC#N)C4)c3)nc12` [Compound B10, N-(3-((1s,3R)-3-(cyanomethyl)-1-(4-methyl-4H-1,2,4-triazol-3-yl)cyclobutyl)phenyl)-3-methyl-7-(((S)-3-methylpiperidin-1-yl)methyl)-1H-pyrrolo[3,2-b]pyridine-5-carboxamide]: the IC50 at Cbl-b (aa36-427) is 2 nM; on Cbl (aa49-434) it was 15.6 nM.

Turning to `C[C@H]1CCCN(Cc2cc(C(=O)Nc3cccc([C@]4(c5nncn5C)C[C@@H](C)C4)c3)c3ncc(F)n3c2)C1` [Compound A6, 3-fluoro-6-{[(3S)-3-methylpiperidin-1-yl]methyl}-N-{3-[(1r, 3s)-3-methyl-1-(4-methyl-1,2,4-triazol-3-yl)cyclobutyl]phenyl}imidazo[1,2-a]pyridine-8-carboxamide], the IC50 at Cbl-b (aa36-427) was determined as 7.2 nM; at Cbl (aa49-434), 19.8 nM.

As for `C[C@H]1CCCN(Cc2cc(C(=O)Nc3cccc([C@]4(c5nncn5C)C[C@@H](CC#N)C4)c3)nc3c2CCC3(C)C)C1` [Compound C9, N-(3-((1s,3R)-3-(cyanomethyl)-1-(4-methyl-4H-1,2,4-triazol-3-yl)cyclobutyl)phenyl)-7,7-dimethyl-4-(((S)-3-methylpiperidin-1-yl)methyl)-6,7-dihydro-5H-cyclopenta[b]pyridine-2-carboxamide], the IC50 on Cbl-b (aa36-427) was determined as 0.9 nM; at Cbl (aa49-434), 15.7 nM.

As to `Cn1cnnc1[C@]1(c2cccc(NC(=O)c3cc(CNC4(C)CC4)cn4c(Cl)cnc34)c2)C[C@H](CC#N)C1` [Compound A41, 3-chloro-N-(3-((1s, 3s)-3-(cyanomethyl)-1-(4-methyl-4H-1,2,4-triazol-3-yl)cyclobutyl)phenyl)-6-(((1-methylcyclopropyl)amino)methyl)imidazo[1,2-a]pyridine-8-carboxamide], the values for the IC50 on Cbl-b (aa36-427) and on Cbl (aa49-434) were 0.2 nM and 0.9 nM, respectively.

Turning to `Cn1cnnc1[C@]1(c2cccc(NC(=O)c3cc(CNCC(C)(C)C)cn4ccnc34)c2)C[C@H](CC#N)C1` [Compound A32, N-(3-((1s, 3s)-3-(cyanomethyl)-1-(4-methyl-4H-1,2,4-triazol-3-yl)cyclobutyl)phenyl)-6-((neopentylamino)methyl)imidazo[1,2-a]pyridine-8-carboxamide], the IC50 at Cbl-b (aa36-427) was found to be 1.1 nM; at Cbl (aa49-434), 4.9 nM.

`Cc1cnc2c(C(=O)Nc3cccc([C@]4(c5nncn5C)C[C@@H](C)C4)c3)cc(CN3CC[C@H](F)[C@H](C)C3)cn12` [Compound A46, 6-(((3R,4S)-4-fluoro-3-methylpiperidin-1-yl)methyl)-3-methyl-N-(3-((1s,3S)-3-methyl-1-(4-methyl-4H-1,2,4-triazol-3-yl)cyclobutyl)phenyl)imidazo[1,2-a]pyridine-8-carboxamide]: the IC50 on Cbl-b (aa36-427) amounted to 1.6 nM; at Cbl (aa49-434) it was 5.9 nM.
